# Laboratory results published in article PMC5084075 (ACS Central Science, 2016).
# Read-outs that look alike come from different tables or passages of the source.
# Experiments:
# [1] = test system: T1, Plasmodium falciparum Pfal (K1); experiment: microbe, parasite or virus in culture; set-up: species or system erythrocytes; P. falciparum asexual blood-stage whole-cell growth inhibition, IC50; settings: K1, Erythrocyte
# T1 construct: K1
# Method: (§1) To confirm the promise of the two starting points OSM-S-5 and -6, they were evaluated against 3D7 (drug-sensitive) and K1 (chloroquine resistant) strains of Plasmodium falciparum in a whole cell assay and against HEK-293 cells as a cytotoxicity marker (Table SB1, Biological Protocols; tables with the prefix “SB” may be found in the Supporting Information). Biological data may be browsed in a static data set taken as a snapshot for this paper (Data Sets S1 (Excel), S2 (SDF)), online in a database constructed through periodic batch uploads,[68] or in a “living database” to which may be added future data;[69] the latter may be visualized in a web browser[70] using an open source system that was recently deployed in the Wikipedia Chemical Structure Explorer,[71] or the data may be downloaded and visualized offline with proprietary (Figure S4)[72] or open source (Figure S5)[73] tools). The evaluation was performed in three different institutions using different assays and widely employed controls; controls are important to assess reproducibility and interassay variability[74] but also to minimize possible bias in evaluating compounds where there are pre-existing data from other researchers already in the public domain (Figure S6).[75]
# [2] = test system: T2, Plasmodium falciparum 3D7; experiment: microbe, parasite or virus in culture; set-up: species or system P. falciparum blood stage culture; whole-cell asexual blood stage P. falciparum growth inhibition; settings: Avery assay, read-out: 3D7 / IC50nM
# T2 construct: 3D7
# Method: as §1
# [3] = test system: T3, Plasmodium falciparum K1 (chloroquine resistant); experiment: microbe, parasite or virus in culture; set-up: species or system P. falciparum blood stage culture; whole-cell asexual blood stage P. falciparum growth inhibition
# T3 construct: K1
# Method: as §1
# [4] = test system: T4, Plasmodium falciparum Pfal (3D7); experiment: microbe, parasite or virus in culture; set-up: species or system erythrocytes; P. falciparum asexual blood-stage whole-cell growth inhibition, IC50; settings: 3D7, Erythrocyte, lab named in column head
# T4 construct: 3D7
# Method: as §1
# [5] = test system: Plasmodium falciparum Pfal (strain not named in column head); experiment: microbe, parasite or virus in culture; set-up: species or system P. falciparum blood stage culture; whole-cell asexual blood stage P. falciparum growth inhibition
# Method: as §1
# PfDHODH = biological target: T5, PfDHODH (Plasmodium falciparum, UniProt Q08210); experiment: biochemical; set-up: PfDHODH enzyme inhibition IC50; settings: read-out: DHODH
# T5 sequence (Q08210 1-569): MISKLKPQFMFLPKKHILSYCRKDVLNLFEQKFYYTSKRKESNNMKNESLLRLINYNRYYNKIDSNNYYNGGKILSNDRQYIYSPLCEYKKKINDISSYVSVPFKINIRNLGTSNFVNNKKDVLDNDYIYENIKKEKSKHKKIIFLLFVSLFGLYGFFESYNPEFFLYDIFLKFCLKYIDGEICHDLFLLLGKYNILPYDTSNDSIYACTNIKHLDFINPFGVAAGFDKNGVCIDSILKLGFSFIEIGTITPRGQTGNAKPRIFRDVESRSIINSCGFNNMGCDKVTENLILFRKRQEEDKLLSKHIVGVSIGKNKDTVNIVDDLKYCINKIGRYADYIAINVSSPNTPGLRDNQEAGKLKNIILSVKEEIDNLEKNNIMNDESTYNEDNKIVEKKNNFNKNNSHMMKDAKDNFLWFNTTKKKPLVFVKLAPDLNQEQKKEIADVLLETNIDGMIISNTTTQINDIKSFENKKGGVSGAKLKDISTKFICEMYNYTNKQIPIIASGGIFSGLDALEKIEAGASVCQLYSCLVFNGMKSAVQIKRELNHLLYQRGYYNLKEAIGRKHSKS
# Text: The potency of the near neighbor set led to an in silico target prediction study being performed on OSM-S-39 (Text S11). The method employed a naive Bayes statistical model identifying molecular structural features of small molecules with protein targets, using the ChEMBL database. Similar statistical approaches based on known activities of compounds have been successfully applied to identify targets of antitubercular compounds.[112]−[114] A total of 1,287 proteins were included for which at least 50 active compounds were known with activities <10 μM, with the other compounds in the database comprising the inactives. After the OSM compounds were scored against each target, the scores obtained were standardized by comparison with scores obtained through comparison with a random set of >10K compounds. The prediction list was culled for proteins relevant to malaria (3D7 proteome), and the analysis gave as the most likely candidate targets, in order of significance, carboxy-terminal domain RNA polymerase II polypeptide A small phosphatase 1 (Q8I3U9), dihydroorotate dehydrogenase (DHODH, Q08210), SUMO-activating enzyme subunit 2 (Q8I553) and 1 (Q8IHS2), and cyclin-dependent kinase 1 (P61075). […] A line of inquiry remaining open is the equivalent assays against the other targets identified in the in silico prediction.
# in vitro [6] = experiment: in vitro; set-up: metabolic stability in human liver microsomes, LC-MS, NADPH, 0.4 mg/mL protein; settings: liver microsomes, human liver microsomes
# Method: (§2) The two original GSK hits (OSM-S-5 and -6) and six NN compounds were evaluated for their kinetic solubility in phosphate buffer and their metabolic stability in human liver microsomes (Table SB5, Data Sets S20 and S21).
# in vitro [7] = experiment: in vitro; set-up: microsomal stability with NADPH, LC-MS, half-life and CLint; settings: human, liver microsomes, HLM
# Method: as §2
# HEK293 = experiment: cells; set-up: cytotoxicity counter-screen on HEK293 cells; settings: Homo sapiens, cytotoxicity
# Method: as §1
# [8] = Avery assay, read-out: K1 / IC50nM
# [9] = Guy assay, read-out: Pfal (K1) IC50 (Guy)
structure (smiles),measurement,setting,value
C[C@@H]1CC[C@H]2[C@@H](C)C(=O)O[C@@H]3O[C@@]4(C)CC[C@@H]1[C@]32OO4 [Artemisinin],IC50,[1]; read-out: K1 / IC50nM,0.61 nM
same,IC50,[2],6 nM
CCN(CC)CCCC(C)Nc1ccnc2cc(Cl)ccc12 (centres unmarked) [Chloroquine],IC50,[3]; [8],266 nM
same,IC50,[2],18.7 nM
Cc1cc(/C=C2\SC(=Nc3ccccc3)NC2=O)c(C)n1-c1ccc(S(N)(=O)=O)cc1 [OSM-A-1],IC50,[4]; read-out: Pfal IC50 (Guy),3.05 µM
same,IC50,"[1]; lab named in column head, read-out: Pfal (K1) IC50 (Guy)",4380 nM
same,IC50,[3]; [9],4380 nM
same,IC50,[5]; Guy assay,3.05 µM
Cc1cc(/C=C2\S/C(=N\c3ccccc3)NC2=O)c(C)n1-c1ccc(C#N)cc1 [OSM-A-2],IC50,[3]; [9],1830 nM
same,IC50,[5]; Guy assay,0.574 µM
COc1cccc(-n2c(C)cc(/C=C3\S/C(=N\c4ccccc4)NC3=O)c2C)c1 [OSM-A-3],IC50,[3]; [9],140 nM
same,IC50,[5]; Guy assay,0.098 µM
Cc1cc(/C=C2\S/C(=N\c3ccccc3)NC2=O)c(C)n1-c1ccc(I)cc1 [OSM-A-4],IC50,[3]; [9],3160 nM
same,IC50,[5]; Guy assay,1.75 µM
Cc1cc(S(=O)(=O)N(C)CC(N)=O)c(C)n1-c1ccc(F)cc1 [OSM-E-1],IC50,[5]; Dundee assay,> 50 µM
Cc1cc(S(=O)(=O)NCC(N)=O)c(C)n1-c1ccc(F)cc1 [OSM-E-2],IC50,[5]; Dundee assay,> 50 µM
Cc1c(S(=O)(=O)N(C)CC(N)=O)c(S(=O)(=O)N(C)CC(N)=O)c(C)n1-c1ccc(F)cc1 [OSM-E-3],IC50,[5]; Dundee assay,> 50 µM
O=C(CBr)OCc1cn(-c2ccc(F)cc2)nn1 [OSM-E-4],IC50,[5]; Dundee assay,> 50 µM
CCOC(=O)COCc1cn(-c2ccc(F)cc2)nn1 [OSM-E-5],IC50,[5]; Dundee assay,> 50 µM
COC(=O)COCc1cn(-c2ccc(F)cc2)nn1 [OSM-E-6],IC50,[5]; Dundee assay,> 50 µM
O=C(COCc1cn(-c2ccc(F)cc2)nn1)OCc1cn(-c2ccc(F)cc2)nn1 [OSM-E-7],IC50,[5]; Dundee assay,> 50 µM
NC(=O)COCc1cn(-c2ccc(F)cc2)nn1 [OSM-E-8],IC50,[5]; Dundee assay,> 50 µM
Cc1cc(/C=C2\S/C(=N\c3ccccc3)N(c3ccccc3)C2=O)c(C)n1-c1cccc(F)c1 [OSM-L-1],IC50,"[3]; Batra assay, read-out: Pfal (K1) IC50 (Batra)",> 5000 nM
same,IC50,[5]; Batra assay,3.2 µM
Cc1cc(/C=C2\SC(=Nc3ccccc3)N(c3ccccc3)C2=O)c(C)n1-c1cccc(F)c1 [OSM-L-1],IC50,[4]; read-out: Pfal IC50 (Batra),3.2 µM
same,IC50,"[1]; lab named in column head, read-out: Pfal (K1) IC50 (Batra)",> 5000 nM
Cc1cc(C=O)c(C)n1-c1ccc(F)cc1 [OSM-S-2],IC50,PfDHODH,> 50 µM
CCOC(=O)c1cc(C)n(-c2ccc(F)cc2)c1C [OSM-S-3],IC50,PfDHODH,> 50 µM
Cc1cc(C(=O)O)c(C)n1-c1ccc(F)cc1 [OSM-S-4],IC50,PfDHODH,> 50 µM
Cc1cc(C(=O)OCC(=O)Nc2c(C)n(C)n(-c3ccccc3)c2=O)c(C)n1-c1ccc(F)cc1 [OSM-S-6],IC50,PfDHODH,> 50 µM
Cc1cc(C(=O)N(C(=O)NC2CCCCC2)C2CCCCC2)c(C)n1-c1ccc(F)cc1 [OSM-S-7],IC50,PfDHODH,> 50 µM
Cc1cc(C(=O)Nc2c(C)n(C)n(-c3ccccc3)c2=O)c(C)n1-c1ccc(F)cc1 [OSM-S-8],IC50,PfDHODH,> 50 µM
Cc1cc(/C=C2\S/C(=N\c3ccccc3)NC2=O)c(C)n1-c1ccc(F)cc1 [OSM-S-10],microsomal CLint,in vitro [6]; read-out: CLint HLM (Monash),17 µL/min/mg
same,half-life,in vitro [6]; read-out: t1/2 HLM (Monash),1.72 h
same,microsomal CLint,in vitro [7]; read-out: CLint HLM (Monash),17 µL/min/mg
same,half-life,in vitro [7]; read-out: t1/2 HLM (Monash),1.72 h
Cc1c(NC(=O)CNC(=O)c2ccccc2)c(=O)n(-c2ccccc2)n1C [OSM-S-16],IC50,PfDHODH,> 50 µM
Cc1cc(C(=O)NCC(N)=O)c(C)n1-c1ccc(F)cc1 [OSM-S-19],IC50,PfDHODH,> 50 µM
Cc1cc(C(=O)NCC(=O)Nc2c(C)n(C)n(-c3ccccc3)c2=O)c(C)n1-c1ccc(F)cc1 [OSM-S-21],IC50,PfDHODH,> 50 µM
Cc1cc(/C=C2\S/C(=N\c3ccccc3)N(CC#N)C2=O)c(C)n1-c1ccc(C(F)(F)F)cc1 [OSM-S-42],IC50,PfDHODH,> 50 µM
Cc1cc(/C=C2\SC(N(CC#N)c3ccccc3)=NC2=O)c(C)n1-c1ccc(C(F)(F)F)cc1 [OSM-S-43],IC50,PfDHODH,> 50 µM
CC(=O)N(C1=NC(=O)/C(=C/c2cc(C)n(-c3ccc(C(F)(F)F)cc3)c2C)S1)c1ccccc1 [OSM-S-45],IC50,PfDHODH,> 50 µM
CCOC(=O)c1ccc(-n2c(C)cc(/C=C3\S/C(=N/c4ccccc4)NC3=O)c2C)cc1 [OSM-S-48],IC50,PfDHODH,> 50 µM
CC(=O)N(C1=NC(=O)/C(=C/c2cc(C)n(-c3ccccc3)c2C)S1)c1ccccc1 [OSM-S-49],IC50,PfDHODH,> 50 µM
CC(=O)N(C1=NC(=O)/C(=C/c2cc(C)n(-c3ccc(C)cc3)c2C)S1)c1ccccc1 [OSM-S-50],IC50,PfDHODH,> 50 µM
Cc1cc(/C=C2\S/C(=N\c3ccccc3)NC2=O)c(C)n1-c1ccccn1 [OSM-S-51],IC50,PfDHODH,> 50 µM
Cc1cc(/C=C2\S/C(=N\c3ccccc3)N(c3ccccc3)C2=O)c(C)n1-c1ccc(C(F)(F)F)cc1 [OSM-S-52],IC50,PfDHODH,> 50 µM
Cc1cc(/C=C2\S/C(=N\c3ccccc3)N(C3CCCC3)C2=O)c(C)n1-c1ccc(C(F)(F)F)cc1 [OSM-S-54],IC50,PfDHODH,> 50 µM
O=C1N=C(Nc2ccccc2)S/C1=C\c1ccccc1 [OSM-S-55],IC50,PfDHODH,> 50 µM
Cc1cc(/C=C2\S/C(=N\c3ccccc3)NC2=O)c(C)[nH]1 [OSM-S-108],inhibition at 40 µM,HEK293,44%
Cc1cc(/C=C2\S/C(=N\c3cccc(O)c3)NC2=O)c(C)n1-c1ccc([N+](=O)[O-])cc1 [OSM-S-110],inhibition at 40 µM,HEK293,26%
COc1ccc(-n2c(C)cc(/C=C3\S/C(=N\c4cccc(O)c4)NC3=O)c2C)cc1 [OSM-S-112],inhibition at 40 µM,HEK293,38%
Cc1cc(/C=C2\S/C(=N\c3cccc(O)c3)NC2=O)c(C)n1-c1ccccc1 [OSM-S-114],inhibition at 40 µM,HEK293,42%
Cc1cc(/C=C2\S/C(=N\c3ccc(O)cc3)NC2=O)c(C)n1-c1ccccc1 [OSM-S-115],inhibition at 40 µM,HEK293,35%
COc1cc(C)c2c(Oc3cccc(C(F)(F)F)c3)c(OC)cc(NC(C)CCCN)c2n1 (centres unmarked) [Tafenoquine],IC50,[3]; [8],451 nM
same,IC50,[2],451 nM
